Results from US8853188B2, “Compositions and methods for cancer treatment” (Women and Infants Hospital of RI, Inc., priority 2005, dated 2014).
Entries after “also recorded” stand apart in the source; their conditions may differ.

Legend:
Assay type in all cases: cell-based
panel of cancer cells = experiment: Antiproliferative and cytotoxic activity on a panel of cancer cells (MTS, 96 well plates)
Source text: A panel of cancer cells is used to evaluate the antiproliferative and cytotoxic activities of B3CD and related analogs. The cells include colon (Colo), breast (MCF-7 and MDA-MB-231), lung (A549), prostate PC3 and LNCaP), melanoma (SK-MEL-31), renal (Caki-1), ovarian (OVCAR-3), bladder (T24), pancreatic (BxPC-3), hepatocarcinoma (Hep3B), neuroblastoma (SH-SY5Y), glioblastoma (SNB-19), medulloblastoma (D283 Med), skin (LS123), squamous cell carcinoma (Scc-15), acute promyelocytic leukemia (APL), myeloblastic (HL-60) and myelomonocytic (U937).
The anticancer activity testing will be carried out by high throughput screening. The cancer cells will be cultured in 96 well plates and treated with the library. B3CD has been tested in this system and was effective at a 200 nM dose. For general screening, 2-200 nM doses will be used. Cells will be treated with the compounds for 12, 24, 48 and 72 hours. A 96 well plate format allows testing a large number of compounds simultaneously. An MTS based colorimetric method of evaluation of proliferation will be utilized, which is widely used in cancer drug discovery. The fingerprint of profiled drugs using 60 cell-line screening program by NCl using COMPARE algorithm (Paull K D, Shoemaker R H, Hodes L, Monks A, Scudiero D A, Rubinstein L, Plowman J, Boyd M R. Display and analysis of patterns of differential activity of drugs against human tumor cell lines: development of mean graph and COMPARE algorithm. J Natl Cancer Inst 1989; 81:1088).
(§1) Materials and methods. Proliferation was measured by MTS and BrdU incorporation assays. Apoptosis was assessed by DNA fragmentation, Cell Death Detection ELISA and caspase-3-assays. Effect of B3CD on TrkB signaling by BDNF was assessed by Western Blot analysis of AKT and ERK phosphorylation. The effect on angiogenesis was determined by chick chorioallantoic membrane (CAM) assay and aortic ring assay.

breast cells = experiment: Proliferation (MTS, BrdU), FIG. 3
Protocol: as §1
(§2) B3CD was tested on the panel of cell described above. […] Such cell-type specificity is not uncommon. […] However, keratinocytes were not affected by B3CD (FIG. 4A; Lane-2). In addition, caspase-3 activity was increased by B3CD (FIG. 4B). These studies indicated an underlying apoptotic mechanism in the anticancer activity of B3CD.

endothelial cells = experiment: Proliferation (MTS, BrdU), FIG. 3
Protocol: as §1, §2

macrophage cells = experiment: Proliferation (MTS, BrdU), FIG. 3
Protocol: as §1, §2

neuroblastic cells [1] = experiment: Proliferation (MTS, BrdU), FIG. 3
Protocol: as §1, §2

osteosarcoma cells = experiment: Proliferation (MTS, BrdU), FIG. 3
Protocol: as §1, §2

ovarian cancer cells = experiment: Proliferation (MTS, BrdU), FIG. 3
Protocol: as §1, §2

pancreatic cells = experiment: Proliferation (MTS, BrdU), FIG. 3
Protocol: as §1, §2

prostate cancer cells = experiment: Proliferation (MTS, BrdU), FIG. 3
Protocol: as §1, §2

skin cells = experiment: Proliferation (MTS, BrdU), FIG. 3
Protocol: as §1, §2

smooth muscle cells = experiment: Proliferation (MTS, BrdU), FIG. 3
Protocol: as §1, §2

neuroblastic cells [2] = experiment: Apoptosis (DNA fragmentation, Cell Death Detection ELISA), FIG. 4A
Protocol: as §1, §2

[3] = test system: SK-N-SH, SH-Sy5Y, SMS-KCN and SMS-R neuroblastic cells; experiment: Viability and proliferation of neuroblastoma cells, 48 hrs; set-up: inhibition of proliferation: dose or concentration left out as unconfirmed
Protocol: as §1
(§3) Neuroblastoma cells were treated with B3CD for 48 hrs. […] AT 0.5 nM, B3CD inhibited >50% (p<0.035) and >90% at […] (p<0.01) viability and proliferation respectively.

ERK1/2 = experiment: Western Blot analysis of ERK phosphorylation; settings: neuroblastoma cells
Protocol: as §1, §3

AKT = experiment: Western Blot analysis of AKT phosphorylation; settings: neuroblastoma cells
Protocol: as §1, §3

SK-N-SH cells = experiment: Cell cycle analysis; settings: 400 nm
IMR-32 cells [4] = experiment: Proliferation of apoptosis-resistant NB cells; settings: data not shown
SMS-KCNR cells [5] = experiment: Proliferation of apoptosis-resistant NB cells; settings: data not shown
Protocol: (§4) NB is characterized with defective apoptotic pathways. […] Neuronal (N-) type SH-SY5Y and IMR-32 cells, and stromal (S-) type SMS-KCNR cells which are resistant to apoptosis were used. […] A defect in caspase-8 or its activation causes resistance to apoptosis and in turn to chemotherapy in all these cells. On the other hand, these cells carry intact intrinsic apoptotic pathway, and executioner caspase-3 is activated by caspase-9 route.
(§5) In depth studies were carried out to assess the activation of intrinsic and extrinsic apoptotic pathways. […] Caspase-9 was activated by B3CD in these cells (FIG. 10B), indicating an active role of intrinsic pathway of apoptosis. […] However, caspase-8 was undetectable in IMR-32 and SH-SY5Y cells.

IMR-32 cells [6] = experiment: Apoptosis in apoptosis-resistant NB cells; settings: IMR-32; data not shown
Protocol: as §4, §5
(§6) Although caspase-8 was detected in SMS-KCNR cells, it was not activated by B3CD (FIG. 10D). Actin immunoblotting was used as loading control in the above studies (data not shown).

SMS-KCNR cells [7] = experiment: Apoptosis in apoptosis-resistant NB cells; settings: data not shown
Protocol: as §4, §5, §6

caspase-8 = experiment: Caspase-8 immunoblot in NB cells; settings: SMS-KCNR cells
Protocol: FIG. 10D. Caspase-8 immunoblot.
as §5, §6

[8] = test system: Human umbilical vein endothelial cells (HUVEC); experiment: Endothelial cell viability / proliferation assay; settings: 25-400 nM, 24 hours
Protocol: (§7) Human umbilical vein endothelial cells (HUVEC) were treated with B3CD (25, 50, 100, 200 and 400 nM) for 24 hours and proliferation was measured as before. Vehicle and CD treated controls were used in each experiment. […] Following the treatment with B3CD, the endothelial cells were rounded up and floated, showing indications of apoptosis similar to NB.

[9] = test system: Human umbilical vein endothelial cells (HUVEC); experiment: Endothelial cell BrdU incorporation assay; settings: 25-400 nM, 24 hours
Protocol: as §7

caspase-3 = experiment: Caspase-3 activation in endothelial cells; settings: data not shown
Source text: Apoptosis in EC by B3CD was studied by DNA fragmentation and caspase-3 activation analyses as before.

C=C1CC[C@H](OC(=O)CBr)C/C1=C/C=C1\CCC[C@]2(C)[C@@H]([C@H](C)CCCC(C)(C)O)CC[C@@H]12 [B3CD, bromoacetic acid 3-{2-[1-(5-hydroxy-1,5-dimethyl-hexyl)-7a-methyl-octahydro-inden-4-ylidene]-ethylidene}-4-methylene-cyclohexyl ester] was tested, and the “anticancer activity in high throughput screening system” value (panel of cancer cells; 200 nM dose) was “effective”, the cytotoxicity (panel of cancer cells; preliminary studies) was “exhibits cytotoxicity” and the effect on proliferation (breast cells) was “did not show an effect on proliferation”. The “antiproliferative and cytotoxic effects” value (endothelial cells) was “potent antiproliferative and cytotoxic effects; also recorded: inhibit proliferation”, the effect on proliferation (macrophage cells) was “did not show an effect on proliferation” and the “antiproliferative and cytotoxic effects” value (neuroblastic cells [1]) was “potent antiproliferative and cytotoxic effects”. The cell viability (neuroblastic cells [1]; by 24 hours) was “less than 15 % of the untreated control cells”, the effect on proliferation (osteosarcoma cells) was “did not show an effect on proliferation” and the “antiproliferative and cytotoxic effects” value (ovarian cancer cells) was “potent antiproliferative and cytotoxic effects”. For the same molecule, the effect on proliferation (pancreatic cells) was “did not show an effect on proliferation”, the “antiproliferative and cytotoxic effects” value (prostate cancer cells) was “potent antiproliferative and cytotoxic effects” and the effect on proliferation (skin cells) was “did not show an effect on proliferation”. For the same molecule, the effect on proliferation (smooth muscle cells) was “did not show an effect on proliferation”, the “DNA laddering (apoptosis)” value (neuroblastic cells [2]) was “distinct DNA laddering characteristic of apoptosis” and the induction of apoptosis (neuroblastic cells [2]) was “induced rapid apoptosis”. The “inhibition of proliferation (in words)” value [3] was “dose dependent manner”, the cytotoxicity at 0.0005 µM ([3]; Neuroblastoma cell, 0.5 nM, p<0.035, read-out: inhibition of viability) was over 50% and the inhibition of proliferation ([3]; p<0.01) was over 90%. For the same molecule, the “phosphorylation of ERK1/2” value (ERK1/2) was “inhibited phosphorylation”, the “phosphorylation of AKT” value (AKT) was “inhibited phosphorylation” and the apoptotic cells (SK-N-SH cells; 7% in control) was 45%. For the same molecule, the cell cycle effect (SK-N-SH cells; data not shown) was “G0/G1 block, inhibition of S-phase”, the inhibition of proliferation (IMR-32 cells [4]) was “dose dependent inhibition of proliferation” and the inhibition of proliferation (SMS-KCNR cells [5]) was “dose dependent inhibition of proliferation”. For the same molecule, the induction of apoptosis (IMR-32 cells [6]) was “induced apoptosis”, the induction of apoptosis (SMS-KCNR cells [7]) was “induced apoptosis” and the “caspase-8 activation (immunoblot)” value (caspase-8) was “not activated”. The “proliferation of EC” value [8] was “strongly inhibited the proliferation”, the “viability of EC” value [8] was “dose dependent decrease in viability” and the BrdU incorporation [9] was “strongly inhibited BrdU incorporation”. The “increase in caspase-3 activity” value (caspase-3) was 5 fold.
